Assay results: PubChem BioAssay AID2060509 (Molecular Pharmacology Branch, DTP, NCI, 2025)
Values joined by “and” are separate entries in the source; they are usually repeats but may differ in a detail not shown here. Equal values may be shown once.

Test system: 485176-168-R4-J1-PDC spheroids with HUVEC/MSC, viability
Experiment: Anticancer human tumor 485176-168-R4-J1-PDC patient-derived pancreatic adenocarcinoma cell line growth inhibition [GQUAD]
Settings: for viability, T/C: stronger effect = lower value
Source text: DNA G-quadruplex Stabilizer Agents in Combinations in Complex Spheroids
A high-throughput screen of multi-cell type tumor spheroids was designed to identify active combinations of DNA G-quadruplex stabilizer agents and targeted small molecules. Complex spheroids include a stromal component modeled by human endothelial cells (HUVEC) and fibroblasts modeled by human mesenchymal stem cells (MSCs). The concentration ranges selected for each drug and investigational agent were based upon clinically achievable concentrations if the clinical Cmax of the agent was known.
Compounds. The drugs and investigational agents: pidnarulex (CX-5461; NSC782164), APTO-253 (NSC789042), BRACO-19 (NSC847499), peposertib (NSC802822), ceralasertib (NSC780249), elimusertib (NSC800525), camonsertib (NSC841442), AZD-1390 (NSC803789), olaparib (NSC753686), talazoparib (NSC767125), ART-558 (NSC835418), sotorasib (NSC818433), MRTX-1133 (NSC836407), SN-38 (NSC673596), topotecan (NSC609699), etoposide (NSC141540), doxorubicin (NSC123127), gemcitabine (NSC613327), 5-fluorouracil (NSC19893), paclitaxel (NSC125973), vemurafenib (NSC761431), panobinostat (NSC761190), R-306465 (JNJ-16241199; NSC773264), adavosertib (NSC754352), TP-3654 (NSC805149), carboplatin (NSC241240), KSQ-4279 (NSC840948), and staurosporine (NSC755774) were obtained from the National Cancer Institute (NCI) Developmental Therapeutics Program Chemical Repository (34). The FDA-approved anticancer drug set is available from the NCI Developmental Therapeutics Program. […] The stock solutions were prepared in dimethyl sulfoxide (DMSO, Sigma-Aldrich, St. Louis, MO, cat. D2650) at 800-fold the tested concentration and stored at -70 degrees C prior to their use. All drugs and investigational agents were tested over a range starting from a high concentration at or near the clinical Cmax and decreasing in half-log increments. If the clinical Cmax for an agent had not been determined, the highest concentration tested was 10 microM.
2.3 Cell Culture. All cells were maintained in an incubator at 37 degrees C and 5% CO2 with 95% humidity. The PDC lines were cultured according to standard operating procedures established by the NCI PDMR. All PDCs were thawed and cultured in Matrigel-coated flasks prepared with a working solution of 1X Ham's F-12 nutrient mix, without supplementation (Invitrogen, cat. 11765054), 100 U/mL penicillin-streptomycin (Invitrogen, cat. 15140122), and 2.5% Matrigel (Corning Inc., cat. 354248) for the first three passages. The 857933-349-R-J2-PDC line was cultured in 6C/Colon 1B media, which includes advanced DMEM/F-12 (Thermo Fisher Scientific, cat. 12634028), 10 mM HEPES (Thermo Fisher Scientific, cat. 15630080), 1X GlutaMAX supplement (Thermo Fisher Scientific, cat. 35050061), 0.1 mg/mL primocin (InvivoGen, cat. ant-pm-2), 10% defined fetal bovine serum, heat inactivated (HyClone Laboratories Inc., cat. SH30070.03HI), 50% L-WRN conditioned media (ATCC, cat. CRL-3276), 1.25 mM N-Acetyl-L-cysteine (Sigma-Aldrich, cat. A9165), 10 mM nicotinamide (Sigma-Aldrich, cat. N0636), 1X B-27 supplement (Thermo Fisher Scientific, cat. 17504044), 1X N-2 supplement (Thermo Fisher Scientific, cat. 17502048), 10 microM Y-27632 dihydrochloride (Tocris Bioscience, cat. 1254), and 50 ng/mL human EGF recombinant protein (Thermo Fisher Scientific, cat. PHG0311). The 485176-168-R4-J1-PDC line was cultured in Panc media, which includes all 6C/Colon 1B media components plus 100 ng/mL human FGF-10 (Thermo Fisher Scientific, cat. 100-26), 500 nM SB-431542 (Selleckchem, cat. S1067), and gastrin (Tocris, cat. 3006).
[…]
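Further: spheroids exposed to compounds for seven days before readout.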
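Wherever viability, T/C is given: percent viability relative to DMSO vehicle control wells as 100%.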

Structure (SMILES)	viability, T/C (compound 0.0316 µM)	viability, T/C (compound 0.1 µM)	viability, T/C (compound 0.316 µM)	viability, T/C (compound 1 µM)	viability, T/C (compound 3.16 µM)	viability, T/C (compound 10 µM)	IC50 (curve of compound)	viability, T/C (compound 0.000999 µM)	viability, T/C (compound 0.00316 µM)	viability, T/C (compound 0.00999 µM)	viability, T/C (compound 0.0999 µM)	IC50 (compound alone, run of 03/26/2024) [nM]
C#Cc1c(F)ccc2cc(O)cc(-c3ncc4c(N5CC6CCC(C5)N6)nc(OCC56CCCN5CC(F)C6)nc4c3F)c12 (centres undefined)	95.2% and 109% and 105%	89% and 86.3% and 108%	92.7% and 88.4% and 95.7%	89.8% and 104% and 109%	104% and 96.4% and 97.2%	95.4% and 93.5% and 104%	> 10000 nM	–	–	–	–	–
C=CC(=O)N1CCN(c2nc(=O)n(-c3c(C)ccnc3C(C)C)c3nc(-c4c(O)cccc4F)c(F)cc23)C(C)C1 (centres undefined)	94.5% and 108% and 99.3%	80.1% and 83.2% and 93.6%	115% and 110% and 111%	91.1% and 122% and 103%	113% and 109% and 111%	96.8% and 114% and 107%	> 10000 nM	–	–	–	–	–
C=CCn1c(=O)c2cnc(Nc3ccc(N4CCN(C)CC4)cc3)nc2n1-c1cccc(C(C)(C)O)n1	101% and 96.5% and 125%	85.2% and 103% and 79.7%	58% and 60.3% and 58.8%	20.7% and 23% and 14.2%	7.67% and 7.8% and 5.95%	5.42% and 4.01% and 4.35%	387 nM and 453 nM and 300 nM	–	–	–	–	–
CC(=O)O[C@H]1C(=O)[C@@]2(C)[C@H]([C@H](OC(=O)c3ccccc3)[C@]3(O)C[C@H](OC(=O)[C@H](O)[C@@H](NC(=O)c4ccccc4)c4ccccc4)C(C)=C1C3(C)C)[C@]1(OC(C)=O)CO[C@@H]1C[C@@H]2O	33.5% and 33.7% and 29.3%	10.2% and 14.9% and 9.73%	12.3% and 11.3% and 10.6%	10.9% and 13.4% and 9.36%	11% and 13.5% and 10.1%	13.7% and 11.4% and 9.37%	< 31.6 nM	–	–	–	–	–
CC(C)(O)C1CCC(Nc2ccc3ncc(-c4cccc(C(F)(F)F)c4)n3n2)CC1 (centres undefined)	95.2% and 95.5% and 94.6%	110% and 90.6% and 87.2%	83.9% and 93.9% and 92.1%	84.3% and 91.6% and 77.9%	53.8% and 62.9% and 60.7%	57.8% and 57.9% and 56.4%	> 10000 nM	–	–	–	–	–
CC(C)n1c(=O)n(C)c2cnc3cc(F)c(-c4ccc(OCCCN5CCCCC5)nc4)cc3c21	91.6% and 91.4% and 87.6%	84.9% and 80% and 85%	92.1% and 95.7% and 88.2%	91.2% and 77.1% and 86.4%	82.5% and 93.8% and 83.5%	78.8% and 75.8% and 72.5%	> 10000 nM	–	–	–	–	–
CC1COCCN1c1cc(-c2ccnn2C)c2ccnc(-c3ccn[nH]3)c2n1 (centres undefined)	76.2% and 71.6% and 87.6%	39.2% and 47.5% and 37.8%	18.1% and 14.2% and 15.9%	10.4% and 10.2% and 9.3%	11.3% and 9.69% and 10%	11.9% and 12.4% and 10.7%	71.6 nM and 88.8 nM and 75.5 nM	–	–	–	–	–
CC1COCCN1c1cc(C2(O)CC3CCC(C2)O3)c2cnn(-c3ccn[nH]3)c2n1 (centres undefined)	68% and 73.8% and 81.9%	32.8% and 40.7% and 53.4%	11.7% and 19.7% and 16.1%	8.14% and 9.02% and 10.2%	8.91% and 11.7% and 10.2%	9.41% and 8.55% and 9.34%	57 nM and 72.7 nM and 111 nM	–	–	–	–	–
CC1COCCN1c1cc(C2(S(C)(=N)=O)CC2)nc(-c2ccnc3[nH]ccc23)n1 (centres undefined)	91.4% and 102% and 101%	98.7% and 102% and 97.1%	93.1% and 96.5% and 101%	56% and 70.9% and 59.4%	36.2% and 34.4% and 72.4%	14.5% and 16.4% and 12.8%	1550 nM and 1930 nM and 3980 nM	–	–	–	–	–
CCCS(=O)(=O)Nc1ccc(F)c(C(=O)c2c[nH]c3ncc(-c4ccc(Cl)cc4)cc23)c1F	84.4% and 98.5% and 96.2%	94.7% and 85.4% and 64.8%	89.7% and 87.6% and 85%	82% and 83.2% and 77%	82.2% and 75.4% and 73.2%	71.2% and 70.3% and 66.2%	> 10000 nM	–	–	–	–	–
CC[C@@]1(O)C(=O)OCc2c1cc1n(c2=O)Cc2cc3c(CN(C)C)c(O)ccc3nc2-1	64.6% and 100% and 90.4%	–	31.3% and 35.5% (2×)	–	–	–	102 nM and 185 nM and 154 nM	103% and 99% and 108%	99.1% and 96.4% and 81%	89.2% and 94.7% and 93%	54.2% and 66.9% and 58.7%	–
CCc1c2c(nc3ccc(O)cc13)-c1cc3c(c(=O)n1C2)COC(=O)[C@]3(O)CC	25.5% and 22.1% and 19.9%	–	5.64% and 4.31% and 3.94%	–	–	–	3.08 nM and 6.61 nM and 4.61 nM	70.1% and 80.1% and 81.3%	44.8% and 56.4% and 56%	36% and 50.5% and 37.6%	14.2% and 11.4% and 13.2%	–
CN(C)c1ccc(Nc2c3ccc(NC(=O)CCN4CCCC4)cc3nc3cc(NC(=O)CCN4CCCC4)ccc23)cc1	101% [middle of 12 runs]	–	102% [middle of 12 runs]	–	93.2% [middle of 12 runs]	84.2% [middle of 12 runs]	–	–	–	–	–	> 10000
